Columns and labels:
[1] = system: POLCO; experiment: Pre-emergence herbicidal action against POLCO; format: in vivo, Polygonum convolvulus; details: dosage 80 g/ha
How it was run: (§1)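 Greenhouse pots of sandy loam held seeds covered with soil, onto which the compound was applied before emergence. An aqueous suspension or emulsion of WP or EC was used at 600 to 800 l/ha with 0.2% wetting agent. Percent damage was judged visually at 3 weeks.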

[2] = system: VERPE; experiment: Post-emergence herbicidal action against VERPE; format: in vivo, Veronica persica; details: 20 g/ha
How it was run: (§2)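 A WP or EC formulation diluted in water with 0.2% wetting agent was sprayed at 600 to 800 l/ha onto one-leaf-stage plants grown in sandy loam. About 3 weeks later, action was rated visually in percent, 100% being dead plants.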

[3] = system: POLCO; experiment: Post-emergence herbicidal action against POLCO; format: in vivo, Polygonum convolvulus; details: dosage 20 g/ha
Method: Seeds of monocotyledonous and dicotyledonous weed and crop plants are laid out in sandy loam soil in wood-fiber pots, covered with soil and cultivated in a greenhouse under good growth conditions. 2 to 3 weeks after sowing, the test plants are treated at the one-leaf stage. The compounds of the invention, formulated in the form of wettable powders (WP) or as emulsion concentrates (EC), are then sprayed onto the green parts of the plants in the form of an aqueous suspension or emulsion at a water application rate equivalent to 600 to 800 l/ha, with addition of 0.2% wetting agent. After the test plants have been left to stand in the greenhouse under optimal growth conditions for about 3 weeks, the action of the preparations is assessed visually in comparison to untreated controls (herbicidal action in percent (%): 100% activity=the plants have died, 0% activity=like control plants). […] The tables below illustrate, in an illustrative manner, the post-emergence herbicidal action of the compounds of the invention, the herbicidal activity being stated in percent.

[4] = system: AMARE; experiment: Pre-emergence herbicidal action against AMARE; format: in vivo, Amaranthus retroflexus
How it was run: as §1

[5] = system: MATIN; experiment: Pre-emergence herbicidal action against MATIN; format: in vivo, Matricaria inodora
How it was run: as §1

[6] = system: SETVI; experiment: Post-emergence herbicidal action against SETVI; format: in vivo, Setaria viridis
How it was run: as §2

[7] = system: ECHCG; experiment: Post-emergence herbicidal action against ECHCG; format: in vivo, Echinochloa crus-galli
How it was run: as §2

[8] = system: PHBPU; experiment: Post-emergence herbicidal action against PHBPU; format: in vivo, Pharbitis purpurea; details: dosage 20 g/ha
How it was run: as §2

[9] = system: VIOTR; experiment: Pre-emergence herbicidal action against VIOTR; format: in vivo, Viola tricolor
How it was run: as §1

[10] = system: PHBPU; experiment: Pre-emergence herbicidal action against PHBPU; format: in vivo, Pharbitis purpurea; details: dosage 80 g/ha
How it was run: as §1

[11] = system: ABUTH; experiment: Pre-emergence herbicidal action against ABUTH; format: in vivo, Abutilon theophrasti
How it was run: as §1

[12] = system: AMARE; experiment: Post-emergence herbicidal action against AMARE; format: in vivo, Amaranthus retroflexus; details: 20 g/ha, visual assessment about 3 weeks after treatment, 100% = plants have died, 0% = like control plants
How it was run: as §2

[13] = system: DIGSA; experiment: Pre-emergence herbicidal action against DIGSA; format: in vivo, Digitaria sanguinalis
How it was run: as §1

[14] = system: VIOTR; experiment: Post-emergence herbicidal action against VIOTR; format: in vivo, Viola tricolor
How it was run: as §2

[15] = system: VERPE; experiment: Pre-emergence herbicidal action against VERPE; format: in vivo, Veronica persica; details: dosage 80 g/ha
How it was run: as §1

[16] = system: ECHCG; experiment: Pre-emergence herbicidal action against ECHCG; format: in vivo, Echinochloa crus-galli; details: 80 g/ha
How it was run: as §1

[17] = system: SETVI; experiment: Pre-emergence herbicidal action against SETVI; format: in vivo, Setaria viridis; details: dosage 80 g/ha
How it was run: as §1

[18] = system: ABUTH; experiment: Post-emergence herbicidal action against ABUTH; format: in vivo, Abutilon theophrasti; details: visual assessment about 3 weeks after treatment vs untreated controls
How it was run: as §2

[19] = system: MATIN; experiment: Post-emergence herbicidal action against MATIN; format: in vivo, Matricaria inodora
How it was run: as §2

[20] = system: AVEFA; experiment: Pre-emergence herbicidal action against AVEFA; format: in vivo, Avena fatua; details: Avena fatua, 504 h; 80 g/ha, pre-emergence
How it was run: as §1

[21] = system: DIGSA; experiment: Post-emergence herbicidal action against DIGSA; format: in vivo, Digitaria sanguinalis; details: Digitaria sanguinalis, 504 h
How it was run: as §2

[22] = 80 g/ha, scored visually after 3 weeks vs untreated controls (100% = plants have died, 0% = like control plants)
[23] = Tripleurospermum inodorum, 504 h, dosage 20 g/ha

CCn1nnnc1NC(=O)c1ccc(C(F)F)c(C(=O)NC)c1C1CC1 [Example 2-304]
100%: Pre-emergence action against AMARE in % ([4]; 20 g/ha, scored visually after 3 weeks vs untreated controls, 100% = plants have died, 0% = like control plants) | Pre-emergence action against AMARE in % [4, 22] | Pre-emergence action against MATIN in % ([5]; dosage 80 g/ha) | Pre-emergence action against VIOTR in % ([9]; dosage 80 g/ha) | Pre-emergence action against ABUTH (herbicidal activity) [11, 22] | Pre-emergence action against ABUTH (herbicidal activity in percent) ([11]; dosage 20 g/ha, scored visually after 3 weeks vs untreated controls, 100% = plants have died, 0% = like control plants) | Post-emergence action at 20 g/ha against AMARE in % [12] | Pre-emergence action against DIGSA in % ([13]; dosage 80 g/ha) | Pre-emergence action against VERPE in % [15]
80%: Pre-emergence action against POLCO in % [1] | Post-emergence action against POLCO in % [3] | Post-emergence action against SETVI in % ([6]; dosage 5 g/ha) | Post-emergence action against SETVI in % ([6]; dosage 20 g/ha) | Post-emergence action against ECHCG in % ([7]; dosage 20 g/ha) | Post-emergence action against VIOTR in % ([14]; 5 g/ha)
90%: Post-emergence action against VERPE in % [2] | Pre-emergence action against MATIN in % ([5]; dosage 20 g/ha) | Post-emergence action against PHBPU in % [8] | Pre-emergence action against VIOTR in % ([9]; dosage 20 g/ha) | Pre-emergence action against PHBPU in % [10] | Pre-emergence action against DIGSA in % ([13]; dosage 20 g/ha) | Post-emergence action against VIOTR in % ([14]; 20 g/ha) | Pre-emergence action against ECHCG in % [16] | Pre-emergence action against SETVI in % [17] | Post-emergence action against ABUTH in % ([18]; dosage 5 g/ha) | Post-emergence action against ABUTH in % ([18]; dosage 20 g/ha) | Post-emergence action against MATIN in % ([19]; dosage 5 g/ha) | Post-emergence action against MATIN in % ([19]; dosage 20 g/ha)

Cn1nnnc1NC(=O)c1ccc(C(F)F)c(C(=O)NC2CC2)c1C1CC1 [Example 1-306]
80%: pest or weed control at 20 g/ha ([3]; Fallopia convolvulus, 504 h) | pest or weed control at 80 g/ha [20] | pest or weed control at 5 g/ha ([18]; Abutilon theophrasti, 504 h, dosage 5 g/ha) | pest or weed control at 20 g/ha ([18]; Abutilon theophrasti, 504 h, dosage 20 g/ha)
90%: pest or weed control at 80 g/ha ([1]; Fallopia convolvulus, 504 h) | pest or weed control at 20 g/ha ([2]; Veronica persica, 504 h) | pest or weed control at 5 g/ha ([6]; Setaria viridis, 504 h, dosage 5 g/ha) | pest or weed control at 20 g/ha ([6]; Setaria viridis, 504 h, dosage 20 g/ha) | pest or weed control at 5 g/ha ([7]; Echinochloa crus-galli, 504 h, dosage 5 g/ha) | pest or weed control at 20 g/ha ([7]; Echinochloa crus-galli, 504 h, dosage 20 g/ha) | pest or weed control at 80 g/ha ([10]; Ipomoea purpurea, 504 h) | pest or weed control at 20 g/ha ([14]; Viola tricolor, 504 h, 20 g/ha) | pest or weed control at 80 g/ha ([15]; Veronica persica, 504 h) | pest or weed control at 5 g/ha ([21]; 5 g/ha) | pest or weed control at 20 g/ha ([21]; 20 g/ha) | pest or weed control at 5 g/ha ([19]; Tripleurospermum inodorum, 504 h, dosage 5 g/ha) | pest or weed control at 20 g/ha [19, 23]
100%: pest or weed control at 20 g/ha ([4]; Amaranthus retroflexus, 504 h, 20 g/ha, scored visually after 3 weeks vs untreated controls, 100% = plants have died, 0% = like control plants) | pest or weed control at 80 g/ha ([4]; Amaranthus retroflexus, 504 h, 80 g/ha, scored visually after 3 weeks vs untreated controls, 100% = plants have died, 0% = like control plants) | pest or weed control at 20 g/ha [5, 23] | pest or weed control at 80 g/ha ([5]; Tripleurospermum inodorum, 504 h, dosage 80 g/ha) | pest or weed control at 20 g/ha ([9]; Viola tricolor, 504 h, dosage 20 g/ha) | pest or weed control at 80 g/ha ([9]; Viola tricolor, 504 h, dosage 80 g/ha) | pest or weed control at 80 g/ha ([11]; Abutilon theophrasti, 504 h, 80 g/ha, scored visually after 3 weeks vs untreated controls (100% = plants have died, 0% = like control plants)) | pest or weed control at 20 g/ha ([11]; Abutilon theophrasti, 504 h, dosage 20 g/ha, scored visually after 3 weeks vs untreated controls, 100% = plants have died, 0% = like control plants, read-out: Pre-emergence action against ABUTH (herbicidal activity in percent)) | pest or weed control at 20 g/ha ([12]; Amaranthus retroflexus, 504 h) | pest or weed control at 20 g/ha ([13]; Digitaria sanguinalis, 504 h, dosage 20 g/ha) | pest or weed control at 80 g/ha ([13]; Digitaria sanguinalis, 504 h, dosage 80 g/ha) | pest or weed control at 80 g/ha ([16]; Echinochloa crus-galli, 504 h) | pest or weed control at 80 g/ha ([17]; Setaria viridis, 504 h)

— patent US12655116B2, “Substituted isophthalic acid diamides” (Bayer Aktiengesellschaft, priority 2020, dated 2026)
